Measurements reported in ChEMBL document CHEMBL1201862, “PubChem BioAssay data set” (2004).
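A five-concentration, 48-hour dose response in 96-well plates underlies each endpoint, interpolated linearly between surrounding concentrations. GI50 is the concentration that inhibits growth by half.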 Calls of active or inactive are those of the source. No stated cut-off is given here; in the data, active = GI50 up to about 1.1 µM and inactive = higher.

Assays:
Assay in all cases: DTP human tumour cell line panel, 48 h
786-0 = tested on: 786-0
A498 = tested on: A498
A549 = tested on: A549
ACHN = tested on: ACHN
BT-549 = tested on: BT-549
CAKI-1 = tested on: CAKI-1
CCRF-CEM = tested on: CCRF-CEM
COLO 205 = tested on: COLO 205
DU-145 = tested on: DU-145
EKVX = tested on: EKVX
HCC 2998 = tested on: HCC 2998
HCT-116 = tested on: HCT-116
HCT-15 = tested on: HCT-15
HL-60 = tested on: HL-60
HOP-62 = tested on: HOP-62
HOP-92 = tested on: HOP-92
HT-29 = tested on: HT-29
Hs-578T = tested on: Hs-578T
IGROV-1 = tested on: IGROV-1
K562 = tested on: K562
KM12 = tested on: KM12
LOX IMVI = tested on: LOX IMVI
M14 = tested on: M14
MCF7 = tested on: MCF7
MDA-MB-231 = tested on: MDA-MB-231
MDA-MB-435 = tested on: MDA-MB-435
MDA-N = tested on: MDA-N
MOLT-4 = tested on: MOLT-4
Malme-3M = tested on: Malme-3M
NCI-H226 = tested on: NCI-H226
NCI-H23 = tested on: NCI-H23
NCI-H460 = tested on: NCI-H460
NCI-H522 = tested on: NCI-H522
NCI/ADR-RES = tested on: NCI/ADR-RES
OVCAR-3 = tested on: OVCAR-3
OVCAR-4 = tested on: OVCAR-4
OVCAR-5 = tested on: OVCAR-5
OVCAR-8 = tested on: OVCAR-8
PC-3 = tested on: PC-3
RPMI-8226 = tested on: RPMI-8226
RXF 393 = tested on: RXF 393
SF-268 = tested on: SF-268
SF-295 = tested on: SF-295
SF-539 = tested on: SF-539
SK-MEL-28 = tested on: SK-MEL-28
SK-MEL-2 = tested on: SK-MEL-2
SK-MEL-5 = tested on: SK-MEL-5
SK-OV-3 = tested on: SK-OV-3
SN12C = tested on: SN12C
SNB-19 = tested on: SNB-19
SR = tested on: SR
SW-620 = tested on: SW-620
T47D = tested on: T47D
TK-10 = tested on: TK-10
U-251 = tested on: U-251
UACC-257 = tested on: UACC-257
UACC-62 = tested on: UACC-62
UO-31 = tested on: UO-31

Measured: GI50

Cc1ccccc1C(=N)c1ccccc1Cc1cccc2ccccc12
18.7 µM: HCT-15
inactive: 786-0 19.4 µM | A498 30.8 µM | A549 25.1 µM | ACHN 30.4 µM | BT-549 33.2 µM | CAKI-1 31 µM | CCRF-CEM 15.4 µM | COLO 205 27.6 µM | DU-145 21.8 µM | EKVX 29.4 µM | HCC 2998 17.5 µM | HCT-116 11.9 µM | HL-60 18.1 µM | HOP-62 19 µM | HOP-92 17.1 µM | HT-29 16.1 µM | Hs-578T 4.63 µM | IGROV-1 28.9 µM | K562 18.2 µM | KM12 16.6 µM | LOX IMVI 18.1 µM | M14 34.2 µM | MCF7 19.1 µM | MDA-MB-231 36.4 µM | MDA-MB-435 21.9 µM | MDA-N 22.2 µM | MOLT-4 14 µM | Malme-3M 11.5 µM | NCI-H226 17.1 µM | NCI-H23 24.5 µM | NCI-H460 15.5 µM | NCI-H522 13.1 µM | NCI/ADR-RES 25.7 µM | OVCAR-3 13.1 µM | OVCAR-4 28.4 µM | OVCAR-5 37.5 µM | OVCAR-8 32 µM | PC-3 40.6 µM | RPMI-8226 7.43 µM | RXF 393 5.93 µM | SF-268 20.6 µM | SF-295 19.2 µM | SF-539 17.6 µM | SK-MEL-28 20.7 µM | SK-MEL-2 16.9 µM | SK-MEL-5 17.9 µM | SK-OV-3 26.3 µM | SN12C 19.2 µM | SNB-19 56.1 µM | SR 15.9 µM | SW-620 21.2 µM | T47D 14.1 µM | TK-10 59.3 µM | U-251 18.2 µM | UACC-257 25.6 µM | UACC-62 15.1 µM | UO-31 38.5 µM

OC1CCCCCCCCCCC1[S+]1CCCC1.O[B-](F)(F)F (stereo unspecified)
inactive: 786-0 > 100 µM | A498 > 100 µM | A549 96.6 µM | ACHN > 100 µM | BT-549 > 100 µM | CAKI-1 > 100 µM | CCRF-CEM > 100 µM | COLO 205 62.7 µM | DU-145 > 100 µM | EKVX > 100 µM | HCC 2998 > 100 µM | HCT-116 > 100 µM | HL-60 > 100 µM | HOP-62 > 100 µM | HOP-92 44.1 µM | HT-29 88.9 µM | Hs-578T > 100 µM | IGROV-1 > 100 µM | K562 29.6 µM | KM12 > 100 µM | LOX IMVI > 100 µM | M14 > 100 µM | MCF7 > 100 µM | MDA-MB-231 > 100 µM | MDA-MB-435 > 100 µM | MDA-N > 100 µM | MOLT-4 > 100 µM | Malme-3M 42 µM | NCI-H226 50.9 µM | NCI-H23 72.6 µM | NCI-H460 > 100 µM | NCI-H522 > 100 µM | NCI/ADR-RES > 100 µM | OVCAR-3 52.5 µM | OVCAR-4 85.9 µM | OVCAR-5 > 100 µM | OVCAR-8 > 100 µM | PC-3 56.8 µM | RPMI-8226 36.1 µM | RXF 393 > 100 µM | SF-268 > 100 µM | SF-295 > 100 µM | SF-539 > 100 µM | SK-MEL-28 68.4 µM | SK-MEL-2 > 100 µM | SK-MEL-5 27.7 µM | SK-OV-3 > 100 µM | SN12C > 100 µM | SNB-19 > 100 µM | SR > 100 µM | SW-620 > 100 µM | T47D > 100 µM | TK-10 > 100 µM | U-251 > 100 µM | UACC-257 38.8 µM | UACC-62 > 100 µM | UO-31 > 100 µM
> 100 µM: HCT-15
